The test system of assay [1] is Staphylococcus aureus. Put plainly: Antibacterial activity against Staphylococcus aureus MTCC 96 by cup-plate method. It counts as functional, organism-based.
The subject of assay [2] is Staphylococcus aureus. Put plainly: Antibacterial activity against Staphylococcus aureus MTCC 96 at 200 ug/ml by cup-plate method. It counts as functional. The note with it: read-out: DIZ.
For assay [3], the system named is Pseudomonas aeruginosa. Nature of the assay: Antibacterial activity against Pseudomonas aeruginosa MTCC 2453 at 50 ug/ml by cup-plate method. Type of assay: functional. The following applies: read-out: DIZ.
Assay [4] has as its system Escherichia coli. Put plainly: Antibacterial activity against Escherichia coli MTCC 739 at 50 ug/ml by cup-plate method. It counts as functional. The following applies: read-out: DIZ.
Assay [5] deals with Pseudomonas aeruginosa. Nature of the assay: Antibacterial activity against Pseudomonas aeruginosa MTCC 2453 at 200 ug/ml by cup-plate method. Type of assay: functional. The following applies: read-out: DIZ.
Assay [6] deals with Staphylococcus aureus. Nature of the assay: Antibacterial activity against Staphylococcus aureus MTCC 96 at 100 ug/ml by cup-plate method. Type of assay: functional. The note with it: read-out: DIZ.
In assay [7] the test system is Pseudomonas aeruginosa. Nature of the assay: Antibacterial activity against Pseudomonas aeruginosa MTCC 2453 at 300 ug/ml by cup-plate method. The note with it: read-out: DIZ. Type of assay: functional.
Assay [8] has as its system Escherichia coli. Put plainly: Antibacterial activity against Escherichia coli MTCC 739 at 300 ug/ml by cup-plate method. The note with it: read-out: DIZ. Type of assay: functional.
For assay [9], the system named is Staphylococcus aureus. Nature of the assay: Antibacterial activity against Staphylococcus aureus MTCC 96 at 300 ug/ml by cup-plate method. It counts as functional. The note with it: read-out: DIZ.
Assay [10] concerns Escherichia coli. Put plainly: Antibacterial activity against Escherichia coli MTCC 739 at 100 ug/ml by cup-plate method. Type of assay: functional. The following applies: read-out: DIZ.
Assay [11] deals with Escherichia coli. Nature of the assay: Antibacterial activity against Escherichia coli MTCC 739 by cup-plate method. It counts as functional, organism-based.
Assay [12] has as its system Pseudomonas aeruginosa. Put plainly: Antibacterial activity against Pseudomonas aeruginosa MTCC 2453 by cup-plate method. Type of assay: functional, organism-based.
In assay [13] the test system is Bacillus subtilis. Nature of the assay: Antibacterial activity against Bacillus subtilis MTCC 121 at 100 ug/ml by cup plate method. The following applies: read-out: DIZ. Type of assay: functional.
For the next assay, the system named is Candida albicans. Nature of the assay: Antifungal activity against Candida albicans MTCC 227 at 50 to 300 ug/ml by cup-plate method. Type of assay: functional, organism-based.
The subject of assay [14] is Staphylococcus aureus. Put plainly: Antibacterial activity against Staphylococcus aureus MTCC 96 at 50 ug/ml by cup-plate method. It counts as functional. The following applies: read-out: DIZ.
Assay [15] relates to Pseudomonas aeruginosa. Put plainly: Antibacterial activity against Pseudomonas aeruginosa MTCC 2453 at 100 ug/ml by cup-plate method. It counts as functional. The following applies: read-out: DIZ.
The subject of assay [16] is Bacillus subtilis. Nature of the assay: Antibacterial activity against Bacillus subtilis MTCC 121 at 300 ug/ml by cup plate method. It counts as functional. The following applies: read-out: DIZ.
The subject of assay [17] is Bacillus subtilis. Put plainly: Antibacterial activity against Bacillus subtilis MTCC 121 at 50 ug/ml by cup plate method. The following applies: read-out: DIZ. Type of assay: functional.
Assay [18] relates to Bacillus subtilis. Nature of the assay: Antibacterial activity against Bacillus subtilis MTCC 121 at 200 ug/ml by cup plate method. Type of assay: functional. The following applies: read-out: DIZ.
Assay [19] has as its system Bacillus subtilis. Put plainly: Antibacterial activity against Bacillus subtilis MTCC 121 by cup plate method. Type of assay: functional, organism-based.
The subject of assay [20] is Escherichia coli. Put plainly: Antibacterial activity against Escherichia coli MTCC 739 at 200 ug/ml by cup-plate method. Type of assay: functional. The note with it: read-out: DIZ.

Molecules are shown by their SMILES. The source made the active and inactive calls. No cut-off for these calls is given here.

For `O=C1N/C(=N\c2ccc(Cl)cc2)S/C1=C\c1cccc([N+](=O)[O-])c1`, the Activity result in the assay with Staphylococcus aureus [1], in the assay on Escherichia coli [11], in the assay on Pseudomonas aeruginosa [12] and with Bacillus subtilis [19] was “Dose-dependent effect” in each case. Further, the zone of inhibition at 200 µg/mL was 9 mm in the assay on Staphylococcus aureus [2], 9 mm in the assay on Pseudomonas aeruginosa [5], 10 mm in the assay with Bacillus subtilis [18] and 9 mm with Escherichia coli [20]. In addition, the zone of inhibition at 50 µg/mL with Pseudomonas aeruginosa [3] is 8 mm; in the assay on Escherichia coli [4] it was 7 mm; in the assay with Staphylococcus aureus [14], 8 mm; in the assay on Bacillus subtilis [17], 9 mm. Also, the zone of inhibition at 100 µg/mL with Staphylococcus aureus [6] came to 9 mm; in the assay on Escherichia coli [10] it was 8 mm; with Bacillus subtilis [13] it was 10 mm; in the assay on Pseudomonas aeruginosa [15] it was 9 mm. Besides, the zone of inhibition at 300 µg/mL stood at 11 mm with Pseudomonas aeruginosa [7], 10 mm in the assay on Escherichia coli [8], 10 mm in the assay on Staphylococcus aureus [9] and 11 mm in the assay on Bacillus subtilis [16]. Besides, the result in the assay with Candida albicans was inactive.

Take `COc1cc(/C=C2\S/C(=N/c3ccc(Cl)cc3)NC2=O)ccc1O`: the Activity result with Staphylococcus aureus [1], in the assay on Escherichia coli [11], with Pseudomonas aeruginosa [12] and in the assay with Bacillus subtilis [19] was “Dose-dependent effect” in each case. Besides, the zone of inhibition at 200 µg/mL in the assay on Staphylococcus aureus [2] came to 7 mm; in the assay on Pseudomonas aeruginosa [5] it was 8 mm; in the assay with Bacillus subtilis [18], 7 mm; in the assay with Escherichia coli [20] it was 9 mm. Further, the zone of inhibition at 50 µg/mL was determined as 7 mm with Pseudomonas aeruginosa [3], 7 mm in the assay with Escherichia coli [4], 6 mm with Staphylococcus aureus [14] and 6 mm in the assay with Bacillus subtilis [17]. The zone of inhibition at 100 µg/mL in the assay on Staphylococcus aureus [6] is 6 mm; in the assay on Escherichia coli [10], 8 mm; in the assay on Bacillus subtilis [13], 7 mm; in the assay on Pseudomonas aeruginosa [15], 7 mm. In addition, the zone of inhibition at 300 µg/mL came to 9 mm with Pseudomonas aeruginosa [7], 9 mm in the assay on Escherichia coli [8], 8 mm with Staphylococcus aureus [9] and 7 mm with Bacillus subtilis [16]. Besides, the outcome in the assay on Candida albicans was inactive.

Turning to `O=C1N/C(=N\c2ccc(F)c(Cl)c2)S/C1=C\c1ccccc1`, the Activity entry with Staphylococcus aureus [1], in the assay on Escherichia coli [11], in the assay with Pseudomonas aeruginosa [12] and with Bacillus subtilis [19] was “Dose-dependent effect” throughout. For the same molecule, the zone of inhibition at 200 µg/mL is 10 mm in the assay on Staphylococcus aureus [2], 10 mm with Pseudomonas aeruginosa [5], 10 mm in the assay on Bacillus subtilis [18] and 11 mm in the assay with Escherichia coli [20]. Also, the zone of inhibition at 50 µg/mL came out at 8 mm with Pseudomonas aeruginosa [3], 7 mm in the assay with Escherichia coli [4], 6 mm with Staphylococcus aureus [14] and 6 mm in the assay with Bacillus subtilis [17]. Moreover, the zone of inhibition at 100 µg/mL in the assay with Staphylococcus aureus [6] came out at 10 mm; with Escherichia coli [10], 8 mm; with Bacillus subtilis [13], 6 mm; in the assay on Pseudomonas aeruginosa [15] it was 10 mm. The zone of inhibition at 300 µg/mL was found to be 12 mm in the assay on Pseudomonas aeruginosa [7], 12 mm in the assay with Escherichia coli [8], 10 mm in the assay on Staphylococcus aureus [9] and 12 mm with Bacillus subtilis [16]. In addition, the outcome in the assay with Candida albicans was inactive.

As for `O=C1N/C(=N\c2ccc(F)c(Cl)c2)S/C1=C\c1ccc(O)cc1`, the Activity entry in the assay on Staphylococcus aureus [1], in the assay on Escherichia coli [11], in the assay on Pseudomonas aeruginosa [12] and in the assay on Bacillus subtilis [19] was “Dose-dependent effect” each time. Further, the zone of inhibition at 200 µg/mL in the assay on Staphylococcus aureus [2], in the assay with Pseudomonas aeruginosa [5], in the assay on Bacillus subtilis [18] and in the assay with Escherichia coli [20] was 10 mm each time. The zone of inhibition at 50 µg/mL is 8 mm with Pseudomonas aeruginosa [3], 8 mm with Escherichia coli [4], 8 mm in the assay with Staphylococcus aureus [14] and 9 mm in the assay with Bacillus subtilis [17]. The zone of inhibition at 100 µg/mL turned out to be 10 mm in the assay on Staphylococcus aureus [6], 9 mm in the assay with Escherichia coli [10], 10 mm in the assay on Bacillus subtilis [13] and 9 mm with Pseudomonas aeruginosa [15]. The zone of inhibition at 300 µg/mL in the assay with Pseudomonas aeruginosa [7] worked out at 10 mm; in the assay on Escherichia coli [8], 10 mm; in the assay on Staphylococcus aureus [9] it was 11 mm; in the assay on Bacillus subtilis [16], 11 mm. The result in the assay with Candida albicans was inactive.

Source of the values: ChEMBL document CHEMBL3044899, “Effect of chloro and fluoro groups on the antimicrobial activity of 2,5-disubstituted 4-thiazolidinones: a comparative study” (2012).
